Data published in patent US8486943B2, “Tetrahydrocyclopenta[b]indole androgen receptor modulators” (Eli Lilly and Company, priority 2008, dated 2013).
Read-outs that look alike come from different tables or passages of the source.

Legend:
[1] = molecular target: T1, human AR (androgen receptor) (Homo sapiens, UniProt P10275); test: Steroid hormone nuclear receptor binding assay (AR binding)
T1 construct: expressed in transfected cells; host or cells: HEK293 cells (lysate, '293-AR lysate')
T1 sequence (P10275 1-920): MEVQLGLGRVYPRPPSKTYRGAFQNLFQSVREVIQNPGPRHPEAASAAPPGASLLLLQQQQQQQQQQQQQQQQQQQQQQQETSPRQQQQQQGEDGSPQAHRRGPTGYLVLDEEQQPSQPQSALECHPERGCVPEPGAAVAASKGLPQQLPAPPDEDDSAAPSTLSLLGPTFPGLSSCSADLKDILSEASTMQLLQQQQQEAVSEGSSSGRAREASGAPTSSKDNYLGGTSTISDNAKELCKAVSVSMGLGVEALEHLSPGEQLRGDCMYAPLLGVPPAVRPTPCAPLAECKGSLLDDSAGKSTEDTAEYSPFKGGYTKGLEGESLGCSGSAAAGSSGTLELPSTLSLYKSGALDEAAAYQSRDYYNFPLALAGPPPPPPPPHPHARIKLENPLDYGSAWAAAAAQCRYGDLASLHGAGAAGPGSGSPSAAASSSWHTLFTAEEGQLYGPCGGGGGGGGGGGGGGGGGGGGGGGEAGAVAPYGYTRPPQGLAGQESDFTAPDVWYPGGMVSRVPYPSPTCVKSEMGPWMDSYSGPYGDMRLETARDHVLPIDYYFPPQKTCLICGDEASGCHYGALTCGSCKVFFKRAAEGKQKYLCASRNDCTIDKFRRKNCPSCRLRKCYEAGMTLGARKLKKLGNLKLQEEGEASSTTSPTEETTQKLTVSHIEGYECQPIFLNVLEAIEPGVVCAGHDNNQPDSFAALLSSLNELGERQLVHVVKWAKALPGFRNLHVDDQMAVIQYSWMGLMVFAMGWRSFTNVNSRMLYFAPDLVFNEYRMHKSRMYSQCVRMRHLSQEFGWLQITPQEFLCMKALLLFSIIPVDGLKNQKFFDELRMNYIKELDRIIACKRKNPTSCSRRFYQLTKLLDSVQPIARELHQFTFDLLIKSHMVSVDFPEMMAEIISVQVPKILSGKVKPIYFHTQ
Experimental: Cell lysates from human embryonic kidney HEK293 cells overexpressing human MR (mineralocorticoid receptor), GR (glucocorticoid receptor), AR (androgen receptor), or PR (progesterone receptor) are used for receptor-ligand competition binding assays to determine Ki values. Typical procedures are provided below
Briefly, steroid receptor competition binding assays are run in a buffer containing 20 mM HEPES buffer (pH=7.6), 0.2 mM EDTA, 75 mM NaCl, 1.5 mM MgCl2, 20% glycerol, 20 mM sodium molybdate, 0.2 mM DTT (dithiothreitol), 20 μg/mL aprotinin and 20 μg/mL leupeptin (assay buffer). […] Assays are typically run in 96-well format. Competing test compounds are added at various concentrations ranging from about 0.01 nM to 10 μM. Non-specific binding is determined in the presence of 500 nM aldosterone for MR binding, 500 nM dexamethasone for GR binding, or 500 nM methyltrienolone for AR and PR binding. […] Plates are mixed for 8 minutes on an orbital shaker at 4° C. The plates are then centrifuged at 3,000 rpm at 4° C. for 10 minutes. An aliquot of 120 μL of the binding reaction mixture is then transferred to another 96-well plate and 175 μL of Wallac Optiphase Hisafe 3™ scintillation fluid is added to each well. Plates are sealed and shaken vigorously on an orbital shaker. After an incubation of 2 hours, plates are read in a Wallac Microbeta counter.
The Kd for [^3H]-aldosterone for MR binding, [^3H]-dexamethasone for GR binding, [^3H]-methyltrienolone for AR binding, or [^3H]-methyltrienolone for PR binding, is determined by saturation binding. The IC50 values for compounds are converted to Ki using the Cheng-Prusoff equation.

[2] = molecular target: T2, human androgen receptor (AR) (Homo sapiens, UniProt P10275); test: C2C12 AR/ARE reporter assay; assay type: cell-based
T2 construct: expressed in transfected cells; host or cells: mouse myoblast C2C12 cells, transient co-transfection with Fugene
T2 sequence (P10275 1-920): T1 sequence (P10275 1-920)
Experimental: As an indicator of agonist activity in muscle tissue, the C2C12 AR/ARE reporter assay is performed. Briefly, mouse myoblast C2C12 cells are co-transfected using Fugene™ reagent. A reporter plasmid containing a GRE/ARE (glucocorticoid response element/androgen response element) and TK promoter upstream of the luciferase reporter cDNA, is transfected with a plasmid constitutively expressing human androgen receptor (AR) using viral CMV promoter. Cells are transfected in T150 cm^2 flasks in DMEM media with 4% charcoal stripped Fetal Bovine Serum (FBS). After a 5 hour incubation, transfected cells are trypsinized, plated in 96 well dishes in DMEM media containing 4% charcoal-stripped FBS, incubated for 2 h and then exposed to various concentrations of test compounds ranging from about 0.01 nM to 10 μM. After 48 h of incubations with compounds, cells are lysed and luciferase activity is determined by standard techniques. Data is fit to a 4 parameter-fit logistics to determine EC50 values. The % efficacy is determined versus maximum stimulation obtained with 10 nM methyltrienolone.

[3] = test system: castrated (GDX) male Sprague Dawley rats; test: Model of Efficacy and Selectivity (castrated rats, tissue wet weights); assay type: in vivo, rat; conditions: eight week treatment; for mean LA wet weight / mean bulbocavernous wet weight / mean prostate wet weight: oral daily
Experimental: Male Sprague Dawley rats (24 weeks old) are castrated (gonadectomized or “GDX”) according to approved procedures and allowed to waste for eight weeks. Age-matched sham-operated […] are also prepared Animals are housed in a temperature-controlled room (24° C.) with a reversed 12 hour light/dark cycle and water and food are available ad libitum.
Animals are randomized based on body weight prior to ascribing a test slot. Compounds of the present invention are administered daily by oral gavage to the castrated thirty two week old rats (body weight about 450-500 g) using a conventional vehicle such as 1% sodium carboxymethylcellulose (CMC)+0.25% Tween 80+0.05% AntiFoam® in sterile H2O. Sham operated rats treated with vehicle alone are used as a treatment positive controls whereas castrated rats treated only with vehicle are used as treatment negative control.
Test animals are dosed daily over a two or eight week timeframe with, for example, 0.3, 1, 2, 3, or 6 mg/kg/day of a compound of the present invention. After the treatment period, animals are sacrificed and the wet weight of the Levator Ani (LA) muscle and the bulbocavernous muscle in each test group may determined and compared to the wet weight of the Levator Ani and the bulbocavernous muscle from the castrated, vehicle-only control group (after weighing, the bulbocavernous muscle may be flash frozen in liquid nitrogen for later use in measuring nitric oxide synthase mRNA, as described below) As an indicator of tissue selective activity, the wet weight of the prostate from test animals may be similarly compared to the wet weight of the prostate from the castrated, vehicle-only group.

[4] = test system: penile nitric oxide synthase (pnNOS) mRNA; test: pnNOS mRNA by real-time quantitative PCR in bulbocavernosum tissue of treated castrated rats; assay type: in vivo, rat; conditions: eight weeks
Experimental: (§1) RNA is isolated from frozen bulbous and corpus cavernosum tissues that are obtained at necropsy from castrated Sprague Dawley rats that are prepared and dosed essentially as described above for the Model of Efficacy and Selectivity. cDNA is synthesized from 2 μg of RNA using a high capacity cDNA kit according to the manufacturer's instructions.
(§2) Real-time quantitative PCR is then performed according to the fluorescent TaqMan® methodology (Applied Biosystems). Assays-on-Demand™ (Applied Biosystems) probes are used for the rat […] nitric oxide synthase transcript (eNOS) while probes are designed for the rat penile specific isoform of neuronal nitric oxide synthase (pnNOS) using probe designer software (Applied Biosystems). The probes are designed to span a 102 bp region of the rat neuronal nitric oxide synthase gene (pnNOS) that is specific to pnNOS (positions 2865-2967). MGB™ Primer sequences are 5′CCGGAACCCTTGCGTTT 3′ (SEQ ID NO:1) (forward) and 5′[…] 3′ (SEQ ID NO:2) (reverse) and the probe sequence is 5′CCCGTAAAGGGCCT 3′ (SEQ ID NO:3) (FAM NFQ). Assays-on-Demand™ probe sets for the PPIB transcript are used as an internal control. PCR is performed on an ABI Prism 7700 Sequence Detection System at the following thermocycler conditions: 2 min. at 50° C., 10 min. at 95° C., and 40 cycles at 95° C. for 30 s, and 60° C. for 1 min. All reactions are carried out in triplicate.

[5] = test system: epithelial nitric oxide synthase (eNOS) mRNA; test: eNOS mRNA by real-time quantitative PCR in corpus cavernosum tissue of treated castrated rats; assay type: in vivo, rat; conditions: 2 mg/kg/day, two weeks
Experimental: as §1, §2

CC(C)OC(=O)N[C@H]1Cc2c(n(Cc3ccccc3O)c3ccc(C#N)cc23)C1 [Example 9, [(S)-7-Cyano-4-(2-hydroxy-benzyl)-1,2,3,4-tetrahydro-cyclopenta[b]indol-2-yl]-carbamic acid isopropyl ester]
Ki [1]: ~0.8 nM
EC50 [2]: ~0.3 nM

CC(C)OC(=O)N[C@H]1Cc2c(n(C[C@@H]3N(C)CC[C@@]3(C)O)c3ccc(C#N)cc23)C1 (relative stereo) [Example 6, [(S)-7-Cyano-4-(trans-3-hydroxy-1-methyl-3-methyl-pyrrolidin-2-ylmethyl)-1,2,3,4-tetrahydro-cyclopenta[b]indol-2-yl]-carbamic acid isopropyl ester]
EC50 ([2]; mouse myoblast C2C12 cells transfected with human AR, no unit printed for these values, read-out: EC50 in the C2C12 AR/ARE reporter assay): ~0.3 nM

CC(C)OC(=O)N[C@H]1Cc2c(n(C[C@@H]3[C@@H](O)CCN3C)c3ccc(C#N)cc23)C1 [Example 2, [(S)-7-Cyano-4-((2R,3S)-3-hydroxy-1-methyl-pyrrolidin-2-ylmethyl)-1,2,3,4-tetrahydrocyclopenta[b]indol-2-yl]-carbamic acid isopropyl ester]
Ki [1]: ~11 nM
EC50 [2]: ~1 nM
mean LA wet weight ([3]; 0.3 mg/kg): about 0.137 g
mean bulbocavernous wet weight ([3]; 0.3 mg/kg): about 0.476 g
mean prostate wet weight ([3]; 0.3 mg/kg): about 72.4 mg
mean LA wet weight ([3]; 1.0 mg/kg): about 0.182 g
mean bulbocavernous wet weight ([3]; 1.0 mg/kg): about 0.582 g
mean prostate wet weight ([3]; 1.0 mg/kg): about 102.8 mg
mean LA wet weight ([3]; 3.0 mg/kg): about 0.205 g
mean bulbocavernous wet weight ([3]; 3.0 mg/kg): about 0.698 g
mean prostate wet weight ([3]; 3.0 mg/kg): about 147.4 mg
mean LA wet weight ([3]; 6.0 mg/kg): about 0.264 g
mean bulbocavernous wet weight ([3]; 6.0 mg/kg): about 0.955 g
mean prostate wet weight ([3]; 6.0 mg/kg): about 271.8 mg
Levator ani weight in comparison to the castrated control group ([3]; 0.3-6.0 mg/kg): dose dependent increase
bulbocavernous weight in comparison to the castrated control group ([3]; 0.3-6.0 mg/kg): dose dependent increase
pnNOS expression ([4]; 0.3 mg/kg): about 97 % of control
pnNOS expression ([4]; 1.0 mg/kg): about 93 % of control
pnNOS expression ([4]; 3.0 mg/kg): about 153 % of control
pnNOS expression ([4]; 6.0 mg/kg): about 248 % of control
penile nitric oxide synthase (pnNOS) mRNA ([4]; 0.3-6.0 mg/kg): dose dependent increase
eNOS expression [5]: about 159 % of control

CC(C)OC(=O)N[C@H]1Cc2c(n(C[C@H]3NCC[C@@H]3O)c3ccc(C#N)cc23)C1 [Example 1, [(S)-7-Cyano-4-((2R,3S)-3-hydroxy-pyrrolidin-2-ylmethyl)-1,2,3,4-tetrahydrocyclopenta[b]indol-2-yl]-carbamic acid isopropyl ester]
Ki [1]: ~51 nM
EC50 [2]: ~20 nM
